Measurements as given in ChEMBL document CHEMBL6177939, “The role of silicon in drug discovery: a review” (RSC Med Chem, 2024).
≈ marks a conversion by molar mass, not a printed value.

Columns and labels:
[1] = tested on: Mycobacterium tuberculosis; test: Antimycobacterial activity against Mycobacterium tuberculosis H37Rv assessed as inhibition of bacterial growth incubated for 24 hrs by alamar blue assay; assay type: functional
MCF7 [2] = test: Antiproliferative activity against human MCF7 cells assessed as reduction in cell growth incubated for 24 hrs; assay type: functional, cell-based; settings: MCF7, 24 h
Caco-2 = test: Antiproliferative activity against human Caco-2 cells assessed as reduction in cell growth incubated for 24 hrs; assay type: functional, cell-based; settings: Caco-2, 24 h
HT-29 = test: Antiproliferative activity against human HT-29 cells assessed as reduction in cell growth incubated for 24 hrs; assay type: functional, cell-based; settings: HT-29, 24 h
NCI-H460 = test: Antiproliferative activity against human NCI-H460 cells assessed as reduction in cell growth incubated for 24 hrs; assay type: functional, cell-based; settings: NCI-H460, 24 h
Staphylococcus aureus [3] = test: Antibacterial activity against Staphylococcus aureus; assay type: functional
Pseudomonas aeruginosa [4] = test: Antibacterial activity against Pseudomonas aeruginosa; assay type: functional
Escherichia coli [5] = test: Antibacterial activity against Escherichia coli; assay type: functional
HT-1080 [6] = test: Cytotoxicity against human HT-1080 cells assessed as reduction in cell growth by MTT assay; assay type: functional, cell-based
MG-22A [7] = test: Cytotoxicity against mouse MG-22A cells assessed as reduction in cell growth by MTT assay; assay type: functional, cell-based
Rhizoctonia solani = test: Antifungal activity against Rhizoctonia solani assessed as inhibition of fungal growth at 1 microg/ml relative to control; assay type: functional
Aedes aegypti = test: […] activity against Aedes aegypti assessed as protection time at 0.5 microg/cm; assay type: functional
Fusarium solani = test: Antifungal activity against Fusarium solani ATCC 20327 assessed as reduction in fungal growth incubated for 24 hrs by CLSI micro-dilution method; assay type: functional
Aspergillus niger = test: Antifungal activity against Aspergillus niger ATCC 16888 assessed as reduction in fungal growth incubated for 24 hrs by broth micro-dilution method; assay type: functional
MCF7 [8] = test: Cytotoxicity against human MCF7 cells assessed as reduction in cell viability by XTT assay; assay type: functional, cell-based
Pseudomonas aeruginosa [9] = test: Antibacterial activity against Pseudomonas aeruginosa ATCC 27853 assessed as reduction in bacterial growth incubated for 24 hrs by CLSI micro-dilution method; assay type: functional
HepG2 = test: Cytotoxicity against human HepG2 cells assessed as reduction in cell viability by XTT assay; assay type: functional, cell-based
Penicillium chrysogenum = test: Antifungal activity against Penicillium chrysogenum ATCC 11709 assessed as reduction in fungal growth incubated for 24 hrs by CLSI micro-dilution method; assay type: functional
Bacillus sp. = test: Antibacterial activity against Bacillus sp. ATCC 19986 assessed as reduction in bacterial growth incubated for 24 hrs by CLSI micro-dilution method; assay type: functional; settings: Bacillus sp. (in: firmicutes)
Plutella xylostella = test: Toxicity in Plutella xylostella assessed as lethal dose; assay type: organism-based
Mythimna separata = test: Toxicity in Mythimna separata assessed as lethal dose; assay type: organism-based
Escherichia coli [10] = test: Antibacterial activity against Escherichia coli ATCC 25922 assessed as reduction in cell growth incubated for 18 hrs by two-fold serial dilution method; assay type: functional
Pseudomonas aeruginosa [11] = test: Antibacterial activity against Pseudomonas aeruginosa ATCC 27853 assessed as reduction in cell growth incubated for 18 hrs by two-fold serial dilution method; assay type: functional
Acinetobacter baumannii = test: Antibacterial activity against Acinetobacter baumannii ATCC 19606 assessed as reduction in cell growth incubated for 18 hrs by two-fold serial dilution method; assay type: functional
Staphylococcus aureus [12] = test: Antibacterial activity against Staphylococcus aureus ATCC 25923 assessed as reduction in cell growth incubated for 18 hrs by two-fold serial dilution method; assay type: functional
BJAB = test: Cytotoxicity against human BJAB cells assessed as lethal dose measured after 48 hrs; assay type: functional; settings: read-out: LD50 (the source's name)
Acetylcholinesterase = Acetylcholinesterase (Homo sapiens, UniProt P22303); test: Inhibition of AChE (unknown origin) using acetylthiocholine iodide as substrate by Ellman's method
HCT-116 = test: Antiproliferative activity against human HCT-116 cells assessed as reduction in cell viability incubated for 72 hrs by MTT assay; assay type: functional, cell-based; settings: HCT-116, 72 h
Vibrio cholerae = test: Antibacterial activity against Vibrio cholerae assessed as inhibition of bacterial growth; assay type: functional
Bacillus subtilis = test: Antibacterial activity against Bacillus subtilis assessed as reduction in bacterial growth incubated for 12 hrs by broth micr-dilution method; assay type: functional
Staphylococcus aureus [13] = test: Antibacterial activity against Staphylococcus aureus assessed as reduction in bacterial growth incubated for 12 hrs by broth micr-dilution method; assay type: functional
Escherichia coli [14] = test: Antibacterial activity against Escherichia coli assessed as reduction in bacterial growth incubated for 12 hrs by broth micr-dilution method; assay type: functional
[15] = target: Sigma non-opioid intracellular receptor 1 (Cavia porcellus, UniProt Q60492); test: Binding affinity to guinea pig sigma 1 receptor assessed as inhibition constant
NIH3T3 = test: Cytotoxicity against mouse NIH3T3 cells assessed as reduction in cell growth by measuring lethal concentration for 72 hrs by MTT assay; assay type: toxicity, cell-based; settings: nih3t3, 72 h
HT-1080 [16] = test: Cytotoxicity against human HT-1080 cells assessed as reduction in cell growth by measuring lethal concentration for 72 hrs by MTT assay; assay type: functional
MG-22A [17] = test: Cytotoxicity against mouse MG-22A cells assessed as reduction in cell growth by measuring lethal concentration for 72 hrs by MTT assay; assay type: functional
MG-22A [18] = test: Cytotoxicity against mouse MG-22A cells assessed as reduction in cell growth measured for 72 hrs by MTT assay; assay type: functional, cell-based
HT-1080 [19] = test: Cytotoxicity against human HT-1080 cells assessed as reduction in cell growth measured for 72 hrs by MTT assay; assay type: functional, cell-based; settings: HT-1080, 72 h
Giardia intestinalis = test: Antiparasitic activity against Giardia intestinalis Portland 1 assessed as reduction in parasite growth incubated for 48 hrs by MTT assay; assay type: functional, organism-based; settings: Giardia duodenalis, Portland 1, 48 h
Entamoeba histolytica = test: Antiparasitic activity against Entamoeba histolytica HM-1:IMSS assessed as reduction in parasite growth incubated for 48 hrs by MTT assay; assay type: functional, organism-based

Sigma non-opioid intracellular receptor 1, sequence (Q60492 whole entry): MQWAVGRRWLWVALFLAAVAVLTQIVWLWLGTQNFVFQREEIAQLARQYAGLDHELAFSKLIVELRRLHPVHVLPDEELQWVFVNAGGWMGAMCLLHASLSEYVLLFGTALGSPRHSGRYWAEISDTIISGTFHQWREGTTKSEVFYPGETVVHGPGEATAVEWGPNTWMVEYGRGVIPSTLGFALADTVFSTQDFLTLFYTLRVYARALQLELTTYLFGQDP
Acetylcholinesterase, sequence (P22303 whole entry): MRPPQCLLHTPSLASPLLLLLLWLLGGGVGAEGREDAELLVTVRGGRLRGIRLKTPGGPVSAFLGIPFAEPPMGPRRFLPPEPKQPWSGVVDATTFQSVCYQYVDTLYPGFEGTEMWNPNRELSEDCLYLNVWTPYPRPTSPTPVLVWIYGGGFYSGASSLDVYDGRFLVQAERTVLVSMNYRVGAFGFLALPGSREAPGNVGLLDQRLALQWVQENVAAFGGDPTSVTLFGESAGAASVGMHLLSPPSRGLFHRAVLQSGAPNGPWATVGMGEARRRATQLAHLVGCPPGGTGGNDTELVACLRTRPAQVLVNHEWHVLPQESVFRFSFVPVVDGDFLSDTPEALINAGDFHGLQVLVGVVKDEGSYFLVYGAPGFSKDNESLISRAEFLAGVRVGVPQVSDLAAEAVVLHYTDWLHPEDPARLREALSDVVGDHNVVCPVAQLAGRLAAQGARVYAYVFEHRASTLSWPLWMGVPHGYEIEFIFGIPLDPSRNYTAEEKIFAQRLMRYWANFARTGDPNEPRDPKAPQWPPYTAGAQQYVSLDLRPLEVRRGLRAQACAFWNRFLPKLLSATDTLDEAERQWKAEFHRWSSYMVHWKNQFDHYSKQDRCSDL

SMILES: Cc1c(CN2CCN(C)CC2)cc(-c2ccc(Cl)cc2)n1-c1ccc(Cl)cc1
- MIC [1]: 1.7 µM

SMILES: CC(C)OC(=O)/C(=N/NC(=O)c1ccc(CO[Si](C)(C)C(C)(C)C)o1)c1ccccc1
- IC50 (MCF7 [2]): 3.5 µM
- IC50 (Caco-2): 40.1 µM
- IC50 (HT-29): 3.6 µM
- IC50 (NCI-H460): 3.6 µM

SMILES: C[Si]1(C)CCN(C(=O)/C=C/C=C/c2ccc3c(c2)OCO3)CC1
- MIC [1]: 50 µg/mL

SMILES: COc1cc(/C=N/CCC[Si](OC)(OC)OC)ccc1OCc1cn(CCOc2ccccc2[N+](=O)[O-])nn1
- MIC (Staphylococcus aureus [3]): 1.87 µg/mL (≈ 3.34 µM)
- MIC (Pseudomonas aeruginosa [4]): 15 µg/mL (≈ 26.8 µM)
- MIC (Escherichia coli [5]): 15 µg/mL (≈ 26.8 µM)

SMILES: C[Si]1(C)CCN(C(=O)/C=C/c2ccc3c(c2)OCO3)CC1
- MIC [1]: 50 µg/mL

SMILES: CCCC[Si](CC)(CCCC)OCC[N+](C)(C)C.[I-]
- IC50 (HT-1080 [6]): 3 µg/mL
- IC50 (MG-22A [7]): 1 µg/mL

SMILES: Cn1cc(C(=O)C(C#N)c2cccc([Si](C)(C)C)c2)c(C(F)F)n1 (centres undefined)
- inhibition at 1 µg/mL (Rhizoctonia solani): 91.2%

SMILES: Cn1cc(C(=O)C(C#N)c2ccc([Si](C)(C)C)cc2F)c(C(F)F)n1 (centres undefined)
- inhibition at 1 µg/mL (Rhizoctonia solani): 91.2%

SMILES: C[Si]1(C)CCN(C(=O)C2=CCCCC2)CC1
- Time (Aedes aegypti): 756 min

SMILES: NCCC[Si-]123OCC[N+]1(CCO2)CCO3 (centres undefined)
- MIC (Fusarium solani): 1.2 µg/mL (≈ 5.16 µM)
- MIC (Aspergillus niger): 1.2 µg/mL (≈ 5.16 µM)
- IC50 (MCF7 [8]): 65 µg/mL (≈ 280 µM)
- MIC (Pseudomonas aeruginosa [9]): 1.2 µg/mL (≈ 5.16 µM)
- IC50 (HepG2): 150 µg/mL (≈ 646 µM)
- MIC (Penicillium chrysogenum): 1.2 µg/mL (≈ 5.16 µM)
- MIC (Bacillus sp.): 1.2 µg/mL (≈ 5.16 µM)

SMILES: CCS(=O)(=O)c1cccnc1-c1nc2cc(S(=O)(=O)C(F)(F)F)ccc2o1
- LC50 (Plutella xylostella): 0.21 µg/mL (≈ 0.5 µM)
- LC50 (Mythimna separata): 4.68 µg/mL (≈ 11.1 µM)

SMILES: O=C1c2ccccc2C(=O)N1CCC[Si-]123OCC[N+]1(CCO2)CCO3 (centres undefined)
- MIC (Escherichia coli [10]): 0.2 µg/mL (≈ 0.552 µM)
- MIC (Pseudomonas aeruginosa [11]): 0.2 µg/mL (≈ 0.552 µM)
- MIC (Acinetobacter baumannii): 0.2 µg/mL (≈ 0.552 µM)
- MIC (Staphylococcus aureus [12]): 0.2 µg/mL (≈ 0.552 µM)

SMILES: CC(C)C(C)(C)[Si](C)(C)OC[C@H]1C[C@@H](n2cc(Br)c(=O)[nH]c2=O)C=C1CO
- CC50 (BJAB): 9 µM

SMILES: C[Si]1(Cl)C=CC(=O)C1=P(c1ccccc1)(c1ccccc1)c1ccccc1 (centres undefined)
- IC50 (Acetylcholinesterase): 113 nM

SMILES: CC(C)(C)[Si](C)(C)OC1OC(=O)C(Br)=C1Br (centres undefined)
- IC50 (HCT-116): 1300 nM

SMILES: O=c1c(I)cn(Cc2cn(CCC[Si-]345OCC[N+]3(CCO4)CCO5)nn2)c(=O)n1Cc1cn(CCC[Si-]234OCC[N+]2(CCO3)CCO4)nn1 (centres undefined)
- MIC50 (Vibrio cholerae): 0.18 µg/mL (≈ 0.217 µM)
- MIC50 (Bacillus subtilis): 0.18 µg/mL (≈ 0.217 µM)
- MIC50 (Staphylococcus aureus [13]): 0.18 µg/mL (≈ 0.217 µM)
- MIC50 (Escherichia coli [14]): 0.18 µg/mL (≈ 0.217 µM)

SMILES: CC(C)=CCN1CC[Si]2(CCCc3ccccc32)CC1
- Ki [15]: 300 nM

SMILES: CCCCCCCCCOCCc1sc[n+](CCC[Si](C)(C)C)c1C.[I-]
- LC50 (NIH3T3): 0.1 µg/mL
- LC50 (HT-1080 [16]): 0.1 µg/mL
- LC50 (MG-22A [17]): 0.1 µg/mL

SMILES: CCN(CC)c1ccc(/C=N/CCC[Si](OC)(OC)OC)c(OCc2cn(CCOc3ccccc3[N+](=O)[O-])nn2)c1
- MIC (Staphylococcus aureus [3]): 0.195 µg/mL (≈ 0.325 µM)
- MIC (Pseudomonas aeruginosa [4]): 6.3 µg/mL (≈ 10.5 µM)
- MIC (Escherichia coli [5]): 6.3 µg/mL (≈ 10.5 µM)

SMILES: Cn1cc(C(=O)C(C#N)c2ccc([Si](C)(C)C)cc2)c(C(F)F)n1 (centres undefined)
- inhibition at 1 µg/mL (Rhizoctonia solani): 91.2%

SMILES: c1ccc(CN2CC[Si]3(CCCc4ccccc43)CC2)cc1
- Ki [15]: 300 nM

SMILES: CCCCCCCCCC[Si](C)(CCCCCCCCCC)OCC[N+](C)(C)C.[I-]
- IC50 (MG-22A [18]): 1 µg/mL
- IC50 (HT-1080 [19]): 0.3 µg/mL

SMILES: CC1C[N+]23CC(C)O[Si-]2(CCCNCC/N=C/c2ccc4ccc5cccc6ccc2c4c56)(O1)OC(C)C3 (centres undefined)
- IC50 (Giardia intestinalis): 44.6 µM
- IC50 (Entamoeba histolytica): 1140 nM

SMILES: CC1(C)CCN(C(=O)C2=CCCCC2)CC1
- Time (Aedes aegypti): 520 min
